Drawing on patent publication US12595261B2, “P2X3 and/or P2X2/3 receptor antagonist, pharmaceutical composition containing same, and use thereof” (BEIJING TIDE PHARMACEUTICAL CO., LTD., priority 2019, dated 2026), this text covers IC50 for two compounds.

For one assay, the target named is T1, Human P2X2/3 receptor (Homo sapiens, UniProt P56373+Q9UBL9).
T1 construct: expressed in transfected cells; host or cells: HEK293 (stably expressing)
T1 sequence (P56373 1-397): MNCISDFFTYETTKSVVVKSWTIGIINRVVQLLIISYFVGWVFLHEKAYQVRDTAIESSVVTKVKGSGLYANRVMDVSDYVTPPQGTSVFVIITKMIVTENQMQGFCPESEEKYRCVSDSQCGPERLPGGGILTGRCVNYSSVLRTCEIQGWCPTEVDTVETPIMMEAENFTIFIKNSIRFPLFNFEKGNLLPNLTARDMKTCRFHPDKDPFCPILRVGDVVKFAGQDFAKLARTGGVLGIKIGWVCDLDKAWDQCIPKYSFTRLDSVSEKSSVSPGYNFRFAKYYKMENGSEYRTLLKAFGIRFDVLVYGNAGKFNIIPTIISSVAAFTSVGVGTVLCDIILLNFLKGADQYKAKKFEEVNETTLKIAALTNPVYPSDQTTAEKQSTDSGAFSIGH
T1 sequence (Q9UBL9 1-471): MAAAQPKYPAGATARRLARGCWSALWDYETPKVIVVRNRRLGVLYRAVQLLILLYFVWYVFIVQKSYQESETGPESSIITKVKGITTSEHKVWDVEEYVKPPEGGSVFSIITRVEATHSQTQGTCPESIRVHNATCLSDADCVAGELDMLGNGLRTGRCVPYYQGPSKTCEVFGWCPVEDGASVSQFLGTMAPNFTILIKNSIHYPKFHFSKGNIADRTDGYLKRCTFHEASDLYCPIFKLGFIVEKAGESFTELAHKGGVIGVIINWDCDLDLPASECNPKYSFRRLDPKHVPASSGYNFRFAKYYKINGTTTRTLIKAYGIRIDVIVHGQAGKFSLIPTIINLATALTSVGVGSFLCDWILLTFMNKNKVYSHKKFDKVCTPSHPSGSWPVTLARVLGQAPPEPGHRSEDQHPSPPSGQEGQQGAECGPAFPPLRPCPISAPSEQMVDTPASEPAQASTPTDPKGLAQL
In words: Inhibitory activity on human P2X2/3 receptor (FLIPR calcium 6 assay, HEK293-P2X2/3 cells, agonist α,β-MeATP). Particulars: HEK293-P2X2/3 stably expressing cell line, FLIPR Tetra. The format is cell-based. The procedure: (§1) Biological Assay: Determination of the Inhibitory Activity of the Compounds on Human P2X3 and P2X2/3 Receptors
(§2) Cells were seeded into a poly-D-lysine-coated 384-well cell culture plate (Corning) at a density of 11,000 cells/well/25 μL of cell inoculation medium, and were cultured in a cell incubator overnight. On the day of the test, the calcium 6 dye was diluted to a 2× concentration with an assay buffer, 25 μL of the 2× calcium 6 dye was added to the 384-well cell culture plate, which was incubated at 37° C. for 2 hours, and then placed at room temperature for further use. The test compound and the agonist, α,β-MeATP were diluted to a 7× concentration with the assay buffer, 10 μL of the 7× test compound was added to the 384-well cell culture plate, which was incubated at room temperature for 15 minutes, and 10 μL of the 7× α,β-MeATP was transferred into the 384-well cell culture plate. […]

Another assay concerns the target T2, Human P2X3 receptor (Homo sapiens, UniProt P56373).
T2 construct: expressed in transfected cells; host or cells: HEK293 (stably expressing)
T2 sequence (P56373 1-397): T1 sequence (P56373 1-397)
In words: Inhibitory activity on human P2X3 receptor (FLIPR calcium 6 assay, HEK293-P2X3 cells, agonist α,β-MeATP). The format is cell-based. As to conditions: HEK293-P2X3 stably expressing cell line, FLIPR Tetra. The procedure: as §1, §2

On to `CC(C)c1cnc2c(c1Oc1cnc(N)nc1N)CCN2` [Compound C1, 5-((5-isopropyl-2,3-dihydro-1H-pyrrolo[2,3-b]pyridin-4-yl)oxy)pyrimidin-2,4-diamine], for which the values for the IC50 at Human P2X2/3 receptor and on Human P2X3 receptor were 100 nM and 60.5 nM, respectively.
The like results for `CC(C)c1cnc2[nH]ccc2c1Oc1cnc(N)nc1N` [Compound C4, 5-((5-isopropyl-1H-pyrrolo[2,3-b]pyridin-4-yl)oxy)pyrimidin-2,4-diamine] were, in that order, 80 nM and 86 nM.

The IC50 is the concentration that gives 50% inhibition.
